# Assay results from US7297707B2, “Benzothiazolyl derivatives” (Hoffmann-La Roche Inc., priority 2003, dated 2007).
# Molecular target: T1, human cannabis CB1 receptor (Homo sapiens, UniProt P21554)
# T1 construct: expressed in transfected cells; host or cells: human embryonic kidney (HEK) cells, Semliki Forest Virus system, membrane preparation
# Experiment: Affinity for cannabinoid CB1 receptors, [3H]-CP-55,940 radioligand binding on HEK cell membranes
# Conditions: affinity for the CB1 receptor, [3H]-CP-55,940, HEK membranes
# Protocol: The affinity of the compounds of the invention for cannabinoid CB1 receptors was determined using membrane preparations of human embryonic kidney (HEK) cells in which the human cannabis CB1 receptor is transiently transfected using the Semliki Forest Virus system in conjunction with [3H]-CP-55,940 as radioligand. After incubation of a freshly prepared cell membrane preparation with the [3H]-ligand, with or without addition of compounds of the invention, separation of bound and free ligand was performed by filtration over glassfiber filters. Radioactivity on the filter was measured by liquid scintillation counting.
# T1 sequence (P21554 whole entry): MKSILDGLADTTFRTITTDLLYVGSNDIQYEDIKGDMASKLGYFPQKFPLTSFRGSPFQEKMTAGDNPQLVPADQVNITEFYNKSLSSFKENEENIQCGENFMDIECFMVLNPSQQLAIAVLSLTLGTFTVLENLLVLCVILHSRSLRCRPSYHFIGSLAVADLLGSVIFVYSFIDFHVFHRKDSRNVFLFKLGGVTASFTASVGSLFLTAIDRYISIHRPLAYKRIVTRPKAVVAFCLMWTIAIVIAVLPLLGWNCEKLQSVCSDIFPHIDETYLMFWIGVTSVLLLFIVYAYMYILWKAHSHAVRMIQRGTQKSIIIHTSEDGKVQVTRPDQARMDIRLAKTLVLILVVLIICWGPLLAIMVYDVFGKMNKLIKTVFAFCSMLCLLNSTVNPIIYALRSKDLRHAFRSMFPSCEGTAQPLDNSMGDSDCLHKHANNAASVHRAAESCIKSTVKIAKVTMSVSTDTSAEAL
row,Compound,IC50 [nM]
1,"Cc1cc(Cl)ccc1N(C(=O)c1ccc(Cl)cc1Cl)c1nc2ccccc2s1 [Example 8, N-Benzothiazol-2-yl-2,4-dichloro-N-(4-chloro-2-methyl-phenyl)-benzamide]",730
2,"COc1ccc(N(C(=O)c2ccc(C(F)(F)F)cc2F)c2nc3ccccc3s2)cc1 [Example 9, N-Benzothiazol-2-yl-2-fluoro-N-(4-methoxy-phenyl)-4-trifluoromethyl-benzamide]",1960
3,"COc1ccc(N(C(=O)c2ccc([N+](=O)[O-])cc2Cl)c2nc3ccccc3s2)cc1 [Example 12, N-Benzothiazol-2-yl-2-chloro-N-(4-methoxy-phenyl)-4-nitro-benzamide]",2480
4,"CCN(CC)c1ccc(N(C(=O)c2ccc([N+](=O)[O-])cc2Cl)c2nc3ccccc3s2)cc1 [Example 28, N-Benzothiazol-2-yl-2-chloro-N-(4-diethylamino-phenyl)-4-nitro-benzamide]",1380
5,"COc1ccc(N(C(=O)c2ccc(Cl)cc2Cl)c2nc3ccc(N)cc3s2)cc1OC [Example 45, N-(6-Amino-benzothiazol-2-yl)-2,4-dichloro-N-(3,4-dimethoxy-phenyl)-benzamide]",830
6,"COc1ccc(N(C(=O)c2ccc(Cl)cc2Cl)c2nc3ccc(NC(=O)Cc4ccccc4)cc3s2)cc1OC [Example 52, 2,4-Dichloro-N-(3,4-dimethoxy-phenyl)-N-(6-phenylacetylamino-benzothiazol-2-yl)-benzamide]",1590
7,"COc1ccc(N(C(=O)c2ccccc2Cl)c2nc3ccc(NS(=O)(=O)N(C)C)cc3s2)cc1OC [Example 57, N-[6-(Dimethylamino-1-sulfonylamino)-benzothiazol-2-yl]-2-chloro-N-(3,4-dimethoxy-phenyl)-benzamide]",1420

# Test system: not given
# Experiment: not given
# Conditions: doses of 5, 10 and 20 mg daily; cited from earlier work
row,Compound,body weight compared to placebo
1,Cc1c(C(=O)NN2CCCCC2)nn(-c2ccc(Cl)cc2Cl)c1-c1ccc(Cl)cc1 [SR141716A],significantly reduced body weight
